Source: PMC3050433, “The effects of maribavir on the autophosphorylation of ganciclovir resistant mutants of the cytomegalovirus UL97 protein” (Herpesviridae, 2010)
Substitutions are numbered along the chain they refer to.

Tests used:
[1] = biological target: T1, UL97 L595F (Human cytomegalovirus, UniProt Q68101, L595F); assay: UL97 autophosphorylation protein kinase assay, L595F; type: biochemical
T1 construct: PCR reaction to generate the full length UL97; honey bee melittin secretion signal (N); made in house; host or cells: Sf21 insect cells, recombinant baculovirus (pMelBac C)
T1 sequence (Q68101 1-707 L595F): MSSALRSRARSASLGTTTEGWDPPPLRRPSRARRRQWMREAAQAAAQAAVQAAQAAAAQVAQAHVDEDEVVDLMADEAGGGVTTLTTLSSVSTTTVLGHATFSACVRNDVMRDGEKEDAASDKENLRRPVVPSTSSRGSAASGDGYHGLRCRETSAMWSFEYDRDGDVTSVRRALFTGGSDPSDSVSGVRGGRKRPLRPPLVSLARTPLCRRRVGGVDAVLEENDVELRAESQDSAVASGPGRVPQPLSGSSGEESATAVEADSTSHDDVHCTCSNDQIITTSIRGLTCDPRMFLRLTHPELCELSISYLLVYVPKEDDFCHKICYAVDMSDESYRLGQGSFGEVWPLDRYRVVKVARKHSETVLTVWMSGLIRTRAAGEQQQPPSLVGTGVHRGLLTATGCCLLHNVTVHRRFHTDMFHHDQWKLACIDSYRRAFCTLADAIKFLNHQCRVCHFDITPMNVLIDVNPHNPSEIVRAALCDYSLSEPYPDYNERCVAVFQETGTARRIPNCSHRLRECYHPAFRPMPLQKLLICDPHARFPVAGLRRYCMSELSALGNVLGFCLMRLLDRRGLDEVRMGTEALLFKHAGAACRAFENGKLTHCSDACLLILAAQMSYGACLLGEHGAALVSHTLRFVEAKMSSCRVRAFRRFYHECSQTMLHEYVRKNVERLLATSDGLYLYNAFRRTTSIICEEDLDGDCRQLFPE
Method: (§1) Analysis of the autophosphorylation of wild type and mutant UL97 protein species was performed by a standard protein kinase assay as previously described (46). Briefly, purified protein was added to 2× protein kinase buffer (100 mM Tris HCl, pH9.0, 20 mM MgCl2, 10 μM ATP, 4 mM DTT, 2 M NaCl) and 370 KBq [γ^32P] ATP (Amersham), made up to 20 μl with SDW and incubated at 37°C. The reactions were terminated by the addition of 2× SDS sample buffer followed by boiling for 3 minutes. The amount of radiolabelled phosphate incorporated by autophosphorylation was analysed by SDS-PAGE and measured using the Biorad Mulitanalyst. The protein kinase assays were initially performed for 2 to 60 minutes to determine the maximum rate of phosphate incorporation, all assays were then performed at the maximum rate which equated to 5 minutes.
(§2) Enzyme kinetic analysis was performed on the purified wild type and mutant UL97 protein species as above using increasing concentrations of ATP (2 μM to 20 μM). The amount of incorporated radiolabelled phosphate was plotted against the concentration of ATP in a Lineweaver Burke plot to determine the Km for ATP for each UL97 species. […]

[2] = biological target: T2, wild type UL97 (Human cytomegalovirus, UniProt Q68101); assay: UL97 autophosphorylation protein kinase assay, wild type; type: biochemical
T2 construct: PCR reaction to generate the full length UL97; honey bee melittin secretion signal (N); made in house; host or cells: Sf21 insect cells, recombinant baculovirus (pMelBac C)
T2 sequence (Q68101 whole entry): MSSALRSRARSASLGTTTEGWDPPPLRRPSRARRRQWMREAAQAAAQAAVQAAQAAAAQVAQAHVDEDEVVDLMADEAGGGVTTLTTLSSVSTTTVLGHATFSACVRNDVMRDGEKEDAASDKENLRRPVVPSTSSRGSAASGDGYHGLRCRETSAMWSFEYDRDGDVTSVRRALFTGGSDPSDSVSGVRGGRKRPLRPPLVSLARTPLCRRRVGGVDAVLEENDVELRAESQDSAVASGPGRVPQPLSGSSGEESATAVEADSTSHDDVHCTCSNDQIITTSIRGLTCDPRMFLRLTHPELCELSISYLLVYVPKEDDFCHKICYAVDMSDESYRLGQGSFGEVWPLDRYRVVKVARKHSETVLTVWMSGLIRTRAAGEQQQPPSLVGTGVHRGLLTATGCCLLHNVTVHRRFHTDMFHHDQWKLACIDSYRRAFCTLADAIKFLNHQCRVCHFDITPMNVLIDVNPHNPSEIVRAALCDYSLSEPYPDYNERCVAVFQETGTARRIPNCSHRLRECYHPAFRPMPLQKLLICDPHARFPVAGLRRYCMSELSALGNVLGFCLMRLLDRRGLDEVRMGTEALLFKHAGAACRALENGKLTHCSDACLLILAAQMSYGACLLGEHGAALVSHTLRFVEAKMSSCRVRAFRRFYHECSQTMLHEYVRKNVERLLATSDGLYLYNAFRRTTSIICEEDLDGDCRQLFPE
Method: as §1
Enzyme kinetic analysis was performed on the purified wild type and mutant UL97 protein species as above using increasing concentrations of ATP (2 μM to 20 μM). The amount of incorporated radiolabelled phosphate was plotted against the concentration of ATP in a Lineweaver Burke plot to determine the Km for ATP for each UL97 species. The effect of maribavir upon the rate of radiolabelled phosphate incorporation by wild type or mutant UL97 was determined by protein kinase assays at a fixed concentration of maribavir (0.5 μM) as above, or with increasing concentrations of maribavir (0.01 μM to 5.0 μM) to determine the IC50 of maribavir for each UL97 species. In order to determine the nature of the inhibition mediated by maribavir, plots of 1/v vs 1/ATP with increasing concentrations of maribavir were constructed. Competitive inhibition was evident if the family of lines cconverged on the y-axis at 1/Vmax. The change in slope caused by the addition of maribavir was used to calculate the Ki using standard enzyme kinetic equations viz.

[3] = system: wild type and mutant UL97 proteins; assay: UL97 autophosphorylation protein kinase assay, all UL97 species pooled; type: biochemical, human cytomegalovirus; details: maribavir 0.5 μM; every form of UL97 investigated (mutant and wild type)
Method: as §1, §2

[4] = biological target: T3, UL97 L397R (Human cytomegalovirus, UniProt Q68101, L397R); assay: UL97 autophosphorylation protein kinase assay, L397R; type: biochemical; details: L397R mutant
T3 construct: PCR reaction to generate the full length UL97; honey bee melittin secretion signal (N); expressed in transfected cells; host or cells: Sf21 insect cells infected with recombinant baculovirus
T3 sequence (Q68101 1-707 L397R): T1 sequence (Q68101 1-707 L595F) with L397R, F595L
Method: as §1, §2

Row | Compound | Km ([1]; L595F, read-out: Km for ATP) [µM] | Km ([2]; wild type UL97, ATP 2 μM to 20 μM, 5 minutes) [µM] | autophosphorylation as % of total phosphorylation of the wild type UL97 protein [3] | IC50 ([1]; L595F mutant) [nM] | reduction in autophosphorylation ([4]; drug concentrations increased to 100 μM) | effect on autophosphorylation ([4]; maribavir 0.5 μM) | % autophosphorylation Plus Maribavir ([2]; maribavir 0.5 μM, normalised relative to wild type, mean and SD of triplicate) [%] | nature of the inhibition ([2]; wild type UL97, 1/v vs 1/ATP with increasing maribavir) | Ki ([2]; wild type UL97, competitive with ATP (2 μM to 20 μM), Lineweaver Burke plot) [nM] | IC50 ([2]; wild type UL97, increasing concentrations of maribavir) [nM]
1 | Nc1ncnc2c1ncn2[C@@H]1O[C@H](COP(=O)(O)OP(=O)(O)OP(=O)(O)O)[C@@H](O)[C@H]1O [ATP] | 31 ± 4.5 | 27 ± 2.2 | – | – | – | – | – | – | – | –
2 | CC(C)Nc1nc2cc(Cl)c(Cl)cc2n1[C@H]1O[C@@H](CO)[C@H](O)[C@@H]1O [maribavir, 5,6-dichloro-2-(isopropylamino)-1-beta-L-ribofuranosyl-1H-benzimidazole] | – | – | below 10% | 28 | did not exhibit a reduction in autophosphorylation | unaffected | 4.5 ± 2.0 | competitive inhibitor of ATP | 10 | 34
